In ChEMBL document CHEMBL4138146, “A Schmidt rearrangement-mediated synthesis of novel tetrahydro-benzo[1,4]diazepin-5-ones as potential anticancer and antiprotozoal agents” (Eur J Med Chem, 2017):

system: UO-31; assay: Growth inhibition of human UO31 cells assessed as cell growth at 10 uM incubated for 48 hrs by sulforhodamine B assay relative to control; type: functional; details: UO-31, 48 h, read-out: Activity

Row | SMILES | growth at 10 µM
1 | O=C1CC(c2cc3ccccc3[nH]c2=O)Nc2ccccc21 (stereo not drawn) | 95.2%

system: U-251; assay: Growth inhibition of human U251 cells assessed as cell growth at 10 uM incubated for 48 hrs by sulforhodamine B assay relative to control; type: functional; details: U-251, 48 h, read-out: Activity

Row | SMILES | growth at 10 µM
2 | O=C1CC(c2cc3ccccc3[nH]c2=O)Nc2ccccc21 (stereo not drawn) | 99.7%

system: CCRF-CEM; assay: Growth inhibition of human CCRF-CEM cells assessed as cell growth at 10 uM incubated for 48 hrs by sulforhodamine B assay relative to control; type: functional; details: read-out: Activity

Row | SMILES | growth at 10 µM
3 | O=C1CC(c2cc3ccccc3[nH]c2=O)Nc2ccccc21 (stereo not drawn) | 106%

system: SF-539; assay: Growth inhibition of human SF539 cells assessed as cell growth at 10 uM incubated for 48 hrs by sulforhodamine B assay relative to control; type: functional; details: SF-539, 48 h, read-out: Activity

Row | SMILES | growth at 10 µM
4 | O=C1CC(c2cc3ccccc3[nH]c2=O)Nc2ccccc21 (stereo not drawn) | 99.4%

system: SN12C; assay: Growth inhibition of human SN12C cells assessed as cell growth at 10 uM incubated for 48 hrs by sulforhodamine B assay relative to control; type: functional; details: read-out: Activity

Row | SMILES | growth at 10 µM
5 | O=C1CC(c2cc3ccccc3[nH]c2=O)Nc2ccccc21 (stereo not drawn) | 93.3%

system: T47D; assay: Growth inhibition of human T47D cells assessed as cell growth at 10 uM incubated for 48 hrs by sulforhodamine B assay relative to control; type: functional; details: read-out: Activity

Row | SMILES | growth at 10 µM
6 | O=C1CC(c2cc3ccccc3[nH]c2=O)Nc2ccccc21 (stereo not drawn) | 94.3%

system: A549; assay: Growth inhibition of human A549/ATCC cells assessed as cell growth at 10 uM incubated for 48 hrs by sulforhodamine B assay relative to control; type: functional; details: A549, 48 h, read-out: Activity

Row | SMILES | growth at 10 µM
7 | O=C1CC(c2cc3ccccc3[nH]c2=O)Nc2ccccc21 (stereo not drawn) | 95.5%

system: Malme-3M; assay: Growth inhibition of human MALME-3M cells assessed as cell growth at 10 uM incubated for 48 hrs by sulforhodamine B assay relative to control; type: functional; details: read-out: Activity

Row | SMILES | growth at 10 µM
8 | O=C1CC(c2cc3ccccc3[nH]c2=O)Nc2ccccc21 (stereo not drawn) | 106%

system: OVCAR-3; assay: Growth inhibition of human OVCAR3 cells assessed as cell growth at 10 uM incubated for 48 hrs by sulforhodamine B assay relative to control; type: functional; details: OVCAR-3, 48 h, read-out: Activity

Row | SMILES | growth at 10 µM
9 | O=C1CC(c2cc3ccccc3[nH]c2=O)Nc2ccccc21 (stereo not drawn) | 113%

system: A498; assay: Growth inhibition of human A498 cells assessed as cell growth at 10 uM incubated for 48 hrs by sulforhodamine B assay relative to control; type: functional; details: A498, 48 h, read-out: Activity

Row | SMILES | growth at 10 µM
10 | O=C1CC(c2cc3ccccc3[nH]c2=O)Nc2ccccc21 (stereo not drawn) | 79.4%

system: HCT-116; assay: Growth inhibition of human HCT116 cells assessed as cell growth at 10 uM incubated for 48 hrs by sulforhodamine B assay relative to control; type: functional; details: HCT-116, 48 h, read-out: Activity

Row | SMILES | growth at 10 µM
11 | O=C1CC(c2cc3ccccc3[nH]c2=O)Nc2ccccc21 (stereo not drawn) | 91.6%

system: SW-620; assay: Growth inhibition of human SW620 cells assessed as cell growth at 10 uM incubated for 48 hrs by sulforhodamine B assay relative to control; type: functional; details: SW-620, 48 h, read-out: Activity

Row | SMILES | growth at 10 µM
12 | O=C1CC(c2cc3ccccc3[nH]c2=O)Nc2ccccc21 (stereo not drawn) | 104%

system: NCI-H522; assay: Growth inhibition of human NCI-H522 cells assessed as cell growth at 10 uM incubated for 48 hrs by sulforhodamine B assay relative to control; type: functional; details: NCI-H522, 48 h, read-out: Activity

Row | SMILES | growth at 10 µM
13 | O=C1CC(c2cc3ccccc3[nH]c2=O)Nc2ccccc21 (stereo not drawn) | 90.7%

system: NCI-H226; assay: Growth inhibition of human NCI-H226 cells assessed as cell growth at 10 uM incubated for 48 hrs by sulforhodamine B assay relative to control; type: functional; details: NCI-H226, 48 h, read-out: Activity

Row | SMILES | growth at 10 µM
14 | O=C1CC(c2cc3ccccc3[nH]c2=O)Nc2ccccc21 (stereo not drawn) | 96.5%

system: TK-10; assay: Growth inhibition of human TK10 cells assessed as cell growth at 10 uM incubated for 48 hrs by sulforhodamine B assay relative to control; type: functional; details: TK-10, 48 h, read-out: Activity

Row | SMILES | growth at 10 µM
15 | O=C1CC(c2cc3ccccc3[nH]c2=O)Nc2ccccc21 (stereo not drawn) | 98%

system: NCI-H322M; assay: Growth inhibition of human NCI-H322M cells assessed as cell growth at 10 uM incubated for 48 hrs by sulforhodamine B assay relative to control; type: functional; details: read-out: Activity

Row | SMILES | growth at 10 µM
16 | O=C1CC(c2cc3ccccc3[nH]c2=O)Nc2ccccc21 (stereo not drawn) | 102%

system: ACHN; assay: Growth inhibition of human ACHN cells assessed as cell growth at 10 uM incubated for 48 hrs by sulforhodamine B assay relative to control; type: functional; details: read-out: Activity

Row | SMILES | growth at 10 µM
17 | O=C1CC(c2cc3ccccc3[nH]c2=O)Nc2ccccc21 (stereo not drawn) | 99.9%

system: RXF 393; assay: Growth inhibition of human RXF393 cells assessed as cell growth at 10 uM incubated for 48 hrs by sulforhodamine B assay relative to control; type: functional; details: RXF 393, 48 h, read-out: Activity

Row | SMILES | growth at 10 µM
18 | O=C1CC(c2cc3ccccc3[nH]c2=O)Nc2ccccc21 (stereo not drawn) | 99.7%

system: KM12; assay: Growth inhibition of human KM12 cells assessed as cell growth at 10 uM incubated for 48 hrs by sulforhodamine B assay relative to control; type: functional; details: KM12, 48 h, read-out: Activity

Row | SMILES | growth at 10 µM
19 | O=C1CC(c2cc3ccccc3[nH]c2=O)Nc2ccccc21 (stereo not drawn) | 105%

system: OVCAR-5; assay: Growth inhibition of human OVCAR5 cells assessed as cell growth at 10 uM incubated for 48 hrs by sulforhodamine B assay relative to control; type: functional; details: OVCAR-5, 48 h, read-out: Activity

Row | SMILES | growth at 10 µM
20 | O=C1CC(c2cc3ccccc3[nH]c2=O)Nc2ccccc21 (stereo not drawn) | 106%

system: NCI/ADR-RES; assay: Growth inhibition of human NCI/ADR-RES cells assessed as cell growth at 10 uM incubated for 48 hrs by sulforhodamine B assay relative to control; type: functional; details: read-out: Activity

Row | SMILES | growth at 10 µM
21 | O=C1CC(c2cc3ccccc3[nH]c2=O)Nc2ccccc21 (stereo not drawn) | 108%

system: COLO 205; assay: Growth inhibition of human COLO205 cells assessed as cell growth at 10 uM incubated for 48 hrs by sulforhodamine B assay relative to control; type: functional; details: COLO 205, 48 h, read-out: Activity

Row | SMILES | growth at 10 µM
22 | O=C1CC(c2cc3ccccc3[nH]c2=O)Nc2ccccc21 (stereo not drawn) | 115%

system: SK-MEL-28; assay: Growth inhibition of human SK-MEL-28 cells assessed as cell growth at 10 uM incubated for 48 hrs by sulforhodamine B assay relative to control; type: functional; details: SK-MEL-28, 48 h, read-out: Activity

Row | SMILES | growth at 10 µM
23 | O=C1CC(c2cc3ccccc3[nH]c2=O)Nc2ccccc21 (stereo not drawn) | 110%

system: SK-OV-3; assay: Growth inhibition of human SKOV3 cells assessed as cell growth at 10 uM incubated for 48 hrs by sulforhodamine B assay relative to control; type: functional; details: SK-OV-3, 48 h, read-out: Activity

Row | SMILES | growth at 10 µM
24 | O=C1CC(c2cc3ccccc3[nH]c2=O)Nc2ccccc21 (stereo not drawn) | 99.4%

system: UACC-62; assay: Growth inhibition of human UACC62 cells assessed as cell growth at 10 uM incubated for 48 hrs by sulforhodamine B assay relative to control; type: functional; details: UACC-62, 48 h, read-out: Activity

Row | SMILES | growth at 10 µM
25 | O=C1CC(c2cc3ccccc3[nH]c2=O)Nc2ccccc21 (stereo not drawn) | 96.3%

system: SNB-19; assay: Growth inhibition of human SNB19 cells assessed as cell growth at 10 uM incubated for 48 hrs by sulforhodamine B assay relative to control; type: functional; details: SNB-19, 48 h, read-out: Activity

Row | SMILES | growth at 10 µM
26 | O=C1CC(c2cc3ccccc3[nH]c2=O)Nc2ccccc21 (stereo not drawn) | 99.4%

system: OVCAR-8; assay: Growth inhibition of human OVCAR8 cells assessed as cell growth at 10 uM incubated for 48 hrs by sulforhodamine B assay relative to control; type: functional; details: OVCAR-8, 48 h, read-out: Activity

Row | SMILES | growth at 10 µM
27 | O=C1CC(c2cc3ccccc3[nH]c2=O)Nc2ccccc21 (stereo not drawn) | 108%

system: HOP-92; assay: Growth inhibition of human HOP92 cells assessed as cell growth at 10 uM incubated for 48 hrs by sulforhodamine B assay relative to control; type: functional; details: HOP-92, 48 h, read-out: Activity

Row | SMILES | growth at 10 µM
28 | O=C1CC(c2cc3ccccc3[nH]c2=O)Nc2ccccc21 (stereo not drawn) | 108%

system: HT-29; assay: Growth inhibition of human HT-29 cells assessed as cell growth at 10 uM incubated for 48 hrs by sulforhodamine B assay relative to control; type: functional; details: HT-29, 48 h, read-out: Activity

Row | SMILES | growth at 10 µM
29 | O=C1CC(c2cc3ccccc3[nH]c2=O)Nc2ccccc21 (stereo not drawn) | 99.5%

system: HOP-62; assay: Growth inhibition of human HOP62 cells assessed as cell growth at 10 uM incubated for 48 hrs by sulforhodamine B assay relative to control; type: functional; details: HOP-62, 48 h, read-out: Activity

Row | SMILES | growth at 10 µM
30 | O=C1CC(c2cc3ccccc3[nH]c2=O)Nc2ccccc21 (stereo not drawn) | 100%

system: MDA-MB-468; assay: Growth inhibition of human MDA-MB-468 cells assessed as cell growth at 10 uM incubated for 48 hrs by sulforhodamine B assay relative to control; type: functional; details: MDA-MB-468, 48 h, read-out: Activity

Row | SMILES | growth at 10 µM
31 | O=C1CC(c2cc3ccccc3[nH]c2=O)Nc2ccccc21 (stereo not drawn) | 96.5%

system: OVCAR-4; assay: Growth inhibition of human OVCAR4 cells assessed as cell growth at 10 uM incubated for 48 hrs by sulforhodamine B assay relative to control; type: functional; details: OVCAR-4, 48 h, read-out: Activity

Row | SMILES | growth at 10 µM
32 | O=C1CC(c2cc3ccccc3[nH]c2=O)Nc2ccccc21 (stereo not drawn) | 109%

system: NCI-H23; assay: Growth inhibition of human NCI-H23 cells assessed as cell growth at 10 uM incubated for 48 hrs by sulforhodamine B assay relative to control; type: functional; details: NCI-H23, 48 h, read-out: Activity

Row | SMILES | growth at 10 µM
33 | O=C1CC(c2cc3ccccc3[nH]c2=O)Nc2ccccc21 (stereo not drawn) | 97.8%
